Assay results published in ChEMBL document CHEMBL5154650, “Identification and optimization of biphenyl derivatives as novel tubulin inhibitors targeting colchicine-binding site overcoming multidrug resistance” (Eur J Med Chem, 2022).

Key:
A549 [1] = test: Antiproliferative activity against human A549 cells measured after 72 hrs by SRB assay; format: functional, cell-based
4T1 [2] = test: Antitumor activity against mouse 4T1 cells xenografted in female BALB/c mouse assessed as T/C at 10 mg/kg, ip administered every other day for 14 days; format: functional; conditions: time 14 day
A549 [3] = test: Induction of cell cycle arrest in human A549 cells assessed as accumulation at G2/M phase at 20 nM measured propidium iodide based flow cytometry analysis; format: functional
RAW264.7 = test: Antiproliferative activity against mouse RAW264.7 cells measured after 72 hrs by SRB assay; format: functional, cell-based; conditions: RAW264.7, 72 h
[4] = Metabolic stability in human liver microsomes assessed as intrinsic clearance at 1 uM in presence of NADPH measured by LC-MS/MS analysis; format: ADME, Microsome
[5] = Antiproliferative activity against human KB/VCR cells measured after 72 hrs by SRB assay; format: functional, cell-based
4T1 [6] = test: Antitumor activity against mouse 4T1 cells xenografted in female BALB/c mouse assessed as T/C at 5 mg/kg, ip administered every other day for 14 days; format: functional; conditions: time 14 day
THP-1 = test: Antiproliferative activity against human THP-1 cells measured after 72 hrs by SRB assay; format: functional, cell-based; conditions: THP-1, 72 h
HT-1080 = test: Antiproliferative activity against human HT-1080 cells measured after 72 hrs by SRB assay; format: functional, cell-based; conditions: HT-1080, 72 h
K562/Adr = test: Antiproliferative activity against human K562/Adr cells measured after 72 hrs by SRB assay; format: functional, cell-based
[7] = Resistant index, ratio IC50 for KB/VCR cells over IC50 for KB cells; format: functional
[8] = Antiproliferative activity against human MRC9 cells measured after 72 hrs by SRB assay; format: functional, cell-based; conditions: MRC9, 72 h
HeLa = test: Antiproliferative activity against human HeLa cells measured after 72 hrs by SRB assay; format: functional, cell-based
HL-60 = test: Antiproliferative activity against human HL-60 cells measured after 72 hrs by SRB assay; format: functional, cell-based; conditions: HL-60, 72 h
[9] = Resistant index, ratio IC50 for K562/Adr cells over IC50 for K562 cells; format: functional
[10] = Resistant index, ratio IC50 for KB-V1 cells over IC50 for KB cells; format: functional
4T1 [11] = test: Antiproliferative activity against mouse 4T1 cells measured after 72 hrs by SRB assay; format: functional, cell-based; conditions: 4T1, 72 h
[12] = Toxicity in female BALB/c mouse xenografted with mouse 4T1 cells assessed as body weight loss at 5 mg/kg, ip administered every other day for 14 days and measured after 7 days; format: organism-based; conditions: in vivo, 336 h, time 14 day
K562 = test: Antiproliferative activity against human K562 cells measured after 72 hrs by SRB assay; format: functional, cell-based; conditions: K562, 72 h
KB = test: Antiproliferative activity against human KB cells measured after 72 hrs by SRB assay; format: functional, cell-based
KB-V1 = test: Antiproliferative activity against human KB-V1 cells measured after 72 hrs by SRB assay; format: functional, cell-based; conditions: KB-V1, 72 h

Row | SMILES | IC50 (A549 [1]; Homo sapiens, A549, 72 h) [nM] | further results
1 | COc1ccc(C(=O)c2ccc(-c3cc(C#N)cc(OC)c3)cc2)cc1 | > 10000 | 
2 | N#Cc1ccc(-c2ccc(C(F)(F)F)cc2)cc1 | 5900 | 
3 | COc1cc(C#N)cc(-c2ccc(C(=O)c3cccc(Cl)c3)cc2)c1 | 121 | 
4 | COc1cc(C#N)cc(-c2ccc(C(=O)c3ccc(O)cc3)cc2)c1 | > 10000 | 
5 | O=C(c1ccccc1)c1ccc(-c2cccc(Cl)c2)cc1 | 1870 | 
6 | COc1cc(C#N)cc(-c2ccc(C(=O)c3ccccc3)c(NC(C)=O)c2)c1 | 1030 | 
7 | COc1cc(C#N)cc(-c2ccc(Cc3ccccc3)cc2)c1 | > 10000 | 
8 | N#Cc1cccc(-c2ccc(C(=O)c3ccccc3)cc2)c1 | 787 | 
9 | COc1cc(C#N)cc(-c2cc(OC)c(C(=O)c3ccccc3)cc2OC)c1 | > 10000 | 
10 | COc1cc(OC)c(OC)c(-c2ccc(C(=O)c3ccccc3)cc2)c1 | > 10000 | 
11 | CC(=O)O[C@H]1C(=O)[C@@]2(C)[C@H]([C@H](OC(=O)c3ccccc3)[C@]3(O)C[C@H](OC(=O)[C@H](O)[C@@H](NC(=O)c4ccccc4)c4ccccc4)C(C)=C1C3(C)C)[C@]1(OC(C)=O)CO[C@@H]1C[C@@H]2O [PACLITAXEL] |  | T/C (4T1 [2]): 49.2%
12 | COc1cc(C#N)cc(-c2ccc(C(=O)c3ccccc3)c(O)c2)c1 | 114 | 
13 | O=C(c1ccccc1)c1ccc(-c2ccccc2)cc1 | > 10000 | 
14 | COc1ccc(-c2ccc(C(=O)c3ccccc3)cc2)cc1 | > 10000 | 
15 | COc1cc(C#N)cc(-c2ccc(C(=O)c3ccccn3)cc2)c1 | 1640 | 
16 | Nc1c(F)cc(Cl)cc1-c1ccc(C(=O)c2ccccc2)cc1 | > 10000 | 
17 | COc1cc(C#N)cc(-c2ccc(C(=O)c3cccc(O)c3)cc2)c1 | 78 | 
18 | CCOc1cccc(-c2ccc(C(=O)c3ccccc3)cc2)c1 | 1580 | 
19 | COc1cc(OC)cc(-c2ccc(C(=O)c3ccccc3)c(N)c2)c1 | 49 | 
20 | COc1cc(C#N)cc(-c2ccc(C(=O)c3ccc(Cl)cc3)cc2)c1 | 1070 | 
21 | COc1cc(C#N)cc(-c2ccc(C(=O)c3ccccc3N)cc2)c1 | 1390 | 
22 | COc1cc(C#N)cc(-c2ccc(C(=O)c3ccccc3)c(N)c2)c1 |  | IC50 (A549 [1]; a549): 6 nM
23 | COc1cc(C#N)cc(-c2ccc(C(=O)c3ccccc3)c(N)c2)c1.Cl | 5 | Activity (A549 [3]): 90%; IC50 (RAW264.7): 7.6 nM; CLH [4]: 0.581 mL/min/g; IC50 [5]: 6.1 nM; T/C (4T1 [6]): 29.9%; IC50 (THP-1): 7.4 nM; IC50 (HT-1080): 6.3 nM; IC50 (K562/Adr): 7.1 nM; Ratio IC50 [7]: 1; IC50 [8]: 166 nM; IC50 (HeLa): 4.2 nM; IC50 (HL-60): 6.8 nM; Ratio IC50 [9]: 0.9; Ratio IC50 [10]: 1; IC50 (4T1 [11]): 7.7 nM; Activity [12]: Non-Toxic; IC50 (K562): 7.8 nM; IC50 (KB): 6.3 nM; IC50 (KB-V1): 6.3 nM
